Data from US4497806A, “Triorganotin compounds, antifungal and antibacterial compositions containing same, and method of using same” (priority 1983, dated 1985).

Legend:
Escherichia coli = test: Antibacterial activity, agar growth inhibition; assay type: cell-based; details: for growth inhibition: Gram-negative, 24 hours at 37° C.
Description: (§1) The agar was also needed with a 1:100 dilution of an 18-hour old culture of the desired bacterial species in sterile distilled water. The plates were incubated for 24 hours at 37° C. with each bacterial strain. Observations of bacterial growth inhibition were made following the appropriate incubation period.
(§2) A solvent control was included in all evaluations, as were growth controls for all bacteria species.
(§3) These compounds were tested for antibacterial activity in the same manner as the triorganotin 5-nitro-2-furoates of the present invention.
(§4) All of the bacteria tested were obtained from the culture collection of the Department of Biological Sciences, St. John's University.

[1] = tested on: Cladosporium carpophilium (ATCC 12117); test: Antifungal activity, agar plate growth inhibition; assay type: cell-based, Cladosporium carpophilum; details: 14 days; note: key: -: no inhibition of growth; +: partial inhibition; 2+: complete inhibition
Description: (§5) Dilutions of the sterile solutions were prepared and added to liquified potato dextrose agar (Difco) to yield final concentrations of 100, 10 and 1 μg/ml. The agar, containing the appropriate organotin compound, was poured into sterile petri dishes and allowed to solidify over night. The agar surface was inoculated centrally with a 2 mm^2 portion of the growth from a ten-day-old culture of each fungus of the group consisting of Aspergillus niger, Chaetomium globosum, Cladosporium carpophilum, Fusarium moniliforme, Myrotheium verrucaria, Penicillium notatum, Rhizopus stolonifer, Trichoderma viride and Trichophyton mentagrophytes, or from a two-day-old culture of Saccharomyces cerevisiae. Inoculated plates were incubated for 14 days and observations of growth inhibition were made by measuring the diameters of the colonies present on the agar surface.
(§6) A solvent was included in all evaluations, as were growth controls for all fungal species.
(§7) The following compounds were tested for comparative purposes: [drawing 6] These compounds were tested for antifungal activity in the same manner as the triorganotin 5-nitro-2-furoates of the present invention.

[2] = tested on: Trichophyton mentagrophytes (ATCC 9129); test: Antifungal activity, agar plate growth inhibition; assay type: cell-based; details: 14 days; note: key: -: no inhibition of growth; +: partial inhibition; 2+: complete inhibition
Description: as §5, §6, §7

[3] = tested on: Chaetomium globosum (ATCC 6205); test: Antifungal activity, agar plate growth inhibition; assay type: cell-based; details: 14 days; note: key: -: no inhibition of growth; +: partial inhibition; 2+: complete inhibition
Description: as §5, §6, §7

[4] = tested on: Aspergillus niger (ATCC 12845); test: Antifungal activity, agar plate growth inhibition; assay type: cell-based; details: 14 days; note: key: -: no inhibition of growth; +: partial inhibition; 2+: complete inhibition
Description: as §5, §6, §7

[5] = tested on: Fusarium moniliforme (ATCC 10052); test: Antifungal activity, agar plate growth inhibition; assay type: cell-based; details: 14 days; note: key: -: no inhibition of growth; +: partial inhibition; 2+: complete inhibition
Description: as §5, §6, §7

[6] = tested on: Saccharomyces cerevisiae (ATCC 9896); test: Antifungal activity, agar plate growth inhibition; assay type: cell-based; details: 14 days; note: key: -: no inhibition of growth; +: partial inhibition; 2+: complete inhibition
Description: as §5, §6, §7

[7] = tested on: Myrothecium verrucaria (ATCC 9095); test: Antifungal activity, agar plate growth inhibition; assay type: cell-based; details: 14 days; note: key: -: no inhibition of growth; +: partial inhibition; 2+: complete inhibition
Description: as §5, §6, §7

[8] = tested on: Penicillium notatum (ATCC 9179); test: Antifungal activity, agar plate growth inhibition; assay type: cell-based; details: 14 days; note: key: -: no inhibition of growth; +: partial inhibition; 2+: complete inhibition
Description: as §5, §6, §7

[9] = tested on: Trichoderma viride (ATCC 8678); test: Antifungal activity, agar plate growth inhibition; assay type: cell-based; details: 14 days; note: key: -: no inhibition of growth; +: partial inhibition; 2+: complete inhibition
Description: as §5, §6, §7

[10] = tested on: Rhizopus stolonifer (ATCC 10404); test: Antifungal activity, agar plate growth inhibition; assay type: cell-based; details: 14 days; note: key: -: no inhibition of growth; +: partial inhibition; 2+: complete inhibition
Description: as §5, §6, §7

Pseudomonas aeruginosa = test: Antibacterial activity, agar growth inhibition; assay type: cell-based; details: Gram-negative, 24 hours at 37° C. Note: key: -: no inhibition of growth; +: partial inhibition; 2+: complete inhibition.
Description: as §1, §2, §3, §4

Row | Compound | growth inhibition ([1]; 1 μg/ml) | growth inhibition ([1]; 10 μg/ml) | growth inhibition ([1]; 100 μg/ml) | growth inhibition ([2]; 1 μg/ml) | growth inhibition ([2]; 10 μg/ml) | growth inhibition ([2]; 100 μg/ml) | growth inhibition ([3]; 1 μg/ml) | growth inhibition ([3]; 10 μg/ml) | growth inhibition ([3]; 100 μg/ml) | growth inhibition ([4]; 1 μg/ml) | growth inhibition ([4]; 10 μg/ml) | growth inhibition ([4]; 100 μg/ml) | growth inhibition ([5]; 1 μg/ml) | growth inhibition ([5]; 10 μg/ml) | growth inhibition ([5]; 100 μg/ml) | growth inhibition ([6]; 1 μg/ml) | growth inhibition ([6]; 10 μg/ml) | growth inhibition ([6]; 100 μg/ml) | growth inhibition ([7]; 1 μg/ml) | growth inhibition ([7]; 10 μg/ml) | other results
1 | N#CN=C(Nc1ccccc1)[S][Sn]([c]1ccccc1)([c]1ccccc1)[c]1ccccc1 [compound 2, N--phenyl, N'--cyano-S--(triphenylstannyl)-isothiourea, reference compound] | - | - | - | - | + | + | - | + | + | - | + | 2+ | - | + | + | - | - | - | - | + | growth inhibition (in words) (Escherichia coli; 100 μg/ml): partially; growth inhibition (Escherichia coli; 1 μg/ml): -; growth inhibition (Escherichia coli; 10 μg/ml): -; growth inhibition ([7]; 100 μg/ml): +; growth inhibition ([8]; 1 μg/ml): -; growth inhibition ([8]; 10 μg/ml): +; growth inhibition ([8]; 100 μg/ml): +; growth inhibition ([9]; 1 μg/ml): -; growth inhibition ([9]; 10 μg/ml): -; growth inhibition ([9]; 100 μg/ml): +; growth inhibition ([10]; 1 μg/ml): -; growth inhibition ([10]; 10 μg/ml): +; growth inhibition ([10]; 100 μg/ml): 2+
2 | N--nitrophenyl, N--(triphenylstannyl) cyanamide [compound 1, reference compound] | + | + | + | + | + | 2+ | + | + | 2+ | + | + | + | + | + | + | - | - | + | + | + | growth inhibition ([7]; 100 μg/ml): +; growth inhibition ([8]; 1 μg/ml): +; growth inhibition ([8]; 10 μg/ml): +; growth inhibition ([8]; 100 μg/ml): +; growth inhibition ([9]; 1 μg/ml): -; growth inhibition ([9]; 10 μg/ml): +; growth inhibition ([9]; 100 μg/ml): +; growth inhibition ([10]; 1 μg/ml): +; growth inhibition ([10]; 10 μg/ml): +; growth inhibition ([10]; 100 μg/ml): +
3 | Tricyclohexyltin 5-nitro-2-furoate [Compound C] | + | + | + | + | + | + | + | + | + | + | + | + | + | + | + | - | - | - | + | + | growth inhibition (Escherichia coli; 1 μg/ml): -; growth inhibition (Escherichia coli; 10 μg/ml): -; growth inhibition (Escherichia coli; 100 μg/ml): -; growth inhibition (Pseudomonas aeruginosa; 1 μg/ml): -; growth inhibition (Pseudomonas aeruginosa; 10 μg/ml): -; growth inhibition (Pseudomonas aeruginosa; 100 μg/ml): -; growth inhibition ([7]; 100 μg/ml): +; growth inhibition ([8]; 1 μg/ml): +; growth inhibition ([8]; 10 μg/ml): +; growth inhibition ([8]; 100 μg/ml): 2+; growth inhibition ([9]; 1 μg/ml): +; growth inhibition ([9]; 10 μg/ml): +; growth inhibition ([9]; 100 μg/ml): +; growth inhibition ([10]; 1 μg/ml): -; growth inhibition ([10]; 10 μg/ml): +; growth inhibition ([10]; 100 μg/ml): +
